Assay results taken from US20250304616A1, “NOVEL PEPT[…] AND DESIGN” (priority 2020, published 2025).
Where two headings read alike, the source gives them in different places.

Test system: recombinant rabies virus 1088 strain (1088/GLuc)
Assay: microbe, parasite or virus in culture
Assay type: cell-based, rabies virus in Neuro-2a cells
Conditions: read-out: Anti-rabies activity

COc1ccc(CN2C[C@@H]3C[C@H]4C(=O)N[C@]3(C(=O)NCc3ccccc3)[C@@H]2[C@@H]4CC(C)C)cc1 (relative stereo) [IB-5, (3S, 3aS, 6R′, 7R*, 7aS*) —N-benzyl-7-isobutyl-1-(4-methoxybenzyl)-5-oxooctahydro-3@H-3,6-methanopyrrolo[3,2-b]pyridine-3a-carboxamide]
IC50: < 10 µM

COc1ccc(CN2C[C@H]3C[C@]4(C(=O)NCc5ccccc5)NC(=O)[C@H]3[C@H]2[C@H]4CC(C)C)cc1 (relative stereo) [IF-6, (3S*, 3aR*, 6S*, 7R*, 7aR*) —N-benzyl-7-isobutyl-1-(4-methoxybenzyl)-4-oxooctahydro-6H-3,6-methanopyrrolo[3,2-c]pyridine-6-carboxamide]
IC50 (Lyssavirus rabies, N2a, 72 h): < 10 µM

CC(C)CC(=O)OCC1=CCN2C3CC(NC(=O)Cc4ccccc4)C1C2CN(Cc1ccccc1)C3 (stereo not shown) [12aab]
IC50 (Lyssavirus rabies, N2a, 72 h): < 10 µM

COc1ccc(CN2CC3CC4(C(=O)NCc5ccccc5)NC(=O)C3C2C4CC(C)C)cc1F (stereo not shown) [IF-801]
IC50 (Lyssavirus rabies, N2a, 72 h): < 10 µM
